Laboratory results reported in patent US11180530B2, “Salt of phenylpropionamide derivative and preparation method therefor” (priority 2017, dated 2021).
Where a name gives a salt, the structure may show the parent alone. Read-outs that look alike come from different tables or passages of the source. Where a SMILES comes first, the peptide text is derived from it. [ ]: non-standard residue; d: D form. The star is where a group is joined. Gly(N-(2R-Ph-propyl)) = C[C@@H](CNCC(=O)O)c1ccccc1; Piperidin1yl(4-NH2,4-COOH) = NC1(C(=O)O)CCN(*)CC1

Key:
[1] = assay type: physicochemical
Protocol: Samples of the compound represented by formula (I) and acetate, hydrochloride, citrate and phosphate of the compound represented by formula (I) were respectively placed open and evenly spread, so that the stability of the samples were investigated under the conditions of room temperature, heating (40° C., 60° C.), illumination (4500Lux) and high humidity (RH75% and RH90%). The sampling period is 20 days.

[2] = assay type: physicochemical; remark: listed apart in the source
Protocol: Samples of acetate, hydrochloride, citrate and phosphate of the compound represented by formula (I) were subjected to a long-term accelerated stability investigation for 6 months under dark and sealed conditions (the inner package is a medicinal low-density polyethylene composite film and the outer package is aluminum foil), humidity (60% RH), temperature (4° C., 25° C.) and with/without nitrogen protection.

[3] = 25° C., 60% RH, nitrogen protection, 1 month
[4] = 25° C., 60% RH, nitrogen protection, 3 months
[5] = 25° C., 60% RH, nitrogen protection, 6 months
[6] = 25° C., 60% RH, nitrogen protection, initial

With `CC(C)C[C@@H](NC(=O)[C@@H](Cc1ccccc1)NC(=O)CNC[C@H](C)c1ccccc1)C(=O)N[C@H](CCCCN)C(=O)N1CCC(N)(C(=O)O)CC1` [Acetate (1:1)] (H-[Gly(N-(2R-Ph-propyl))][dF][dL][dK]-{Piperidin1yl(4-NH2,4-COOH)}) the “Stability (conclusion in words)” value ([1]; illumination, 40° C., 60° C.) was “degraded varying degrees” and the “Long-term stability (conclusion in words)” value ([2]; 6 months, 4° C., 25° C., 60% RH, with/without nitrogen protection, amorphous samples) was “stable”.

With `CC(C)C[C@@H](NC(=O)[C@@H](Cc1ccccc1)NC(=O)CNC[C@H](C)c1ccccc1)C(=O)N[C@H](CCCCN)C(=O)N1CCC(N)(C(=O)O)CC1` [Acetate (1:2)] (H-[Gly(N-(2R-Ph-propyl))][dF][dL][dK]-{Piperidin1yl(4-NH2,4-COOH)}) the “Stability (conclusion in words)” value ([1]; high temperature) was “poor stability” and the “acetate (radical) content by ion chromatography” value ([1]; high temperature, after the 20-day experiment) was “greatly reduced”.

For `CC(C)C[C@@H](NC(=O)[C@@H](Cc1ccccc1)NC(=O)CNC[C@H](C)c1ccccc1)C(=O)N[C@H](CCCCN)C(=O)N1CCC(N)(C(=O)O)CC1` [Citrate (1:2)] (H-[Gly(N-(2R-Ph-propyl))][dF][dL][dK]-{Piperidin1yl(4-NH2,4-COOH)}), the “Stability (conclusion in words)” value ([1]; high temperature of 60° C.) was “degraded greatly”.

Work on `CC(C)C[C@@H](NC(=O)[C@@H](Cc1ccccc1)NC(=O)CNC[C@H](C)c1ccccc1)C(=O)N[C@H](CCCCN)C(=O)N1CCC(N)(C(=O)O)CC1` [Embodiment 2, 4-amino-1-((2R,5R,8R,14R)-2-(4-aminobutyl)-8-benzyl-5-isobutyl-4,7,10-trioxo-14-phenyl-3,6,9,12-tetraazapentadecan-1-acyl)piperidine-4-carboxylic acid] (H-[Gly(N-(2R-Ph-propyl))][dF][dL][dK]-{Piperidin1yl(4-NH2,4-COOH)}) yielded a Purity % ([1]; 25° C., 5 days) of 97.64%, a Purity % ([1]; 25° C., 10 days) of 97.64% and a Purity % ([1]; 25° C., 20 days) of 97.63%. The Purity % ([1]; 40° C., 5 days) was 96.23%, the Purity % ([1]; 4500 Lux, 0 days (initial)) was 97.65% and the Purity % ([1]; 4500 Lux, 5 days) was 96.99%. For the same molecule, the Purity % ([1]; 4500 Lux, 10 days) was 96.68% and the Purity % ([1]; 4500 Lux, 20 days) was 96.72%.

`CC(C)C[C@@H](NC(=O)[C@@H](Cc1ccccc1)NC(=O)CNC[C@H](C)c1ccccc1)C(=O)N[C@H](CCCCN)C(=O)N1CCC(N)(C(=O)O)CC1` [Embodiment 3, 4-amino-1-((2R,5R,8R,14R)-2-(4-aminobutyl)-8-benzyl-5-isobutyl-4,7,10-trioxo-14-phenyl-3,6,9,12-tetraazapentadecan-1-acyl)piperidine-4-carboxylic acid] (H-[Gly(N-(2R-Ph-propyl))][dF][dL][dK]-{Piperidin1yl(4-NH2,4-COOH)}) gave a Purity % ([2]; 4° C., 1 month) of 99.59%, a Purity % ([2]; 4° C., 3 months) of 99.58% and a Purity % ([2]; 4° C., 6 months) of 99.60%. For the same molecule, the Purity % ([2]; 4° C., initial) was 99.59%, the Aspect [2, 3] was “White” and the Purity % [2, 3] was 99.58%. For the same molecule, the Aspect [2, 4] was “White”, the Purity % [2, 4] was 99.51% and the Aspect [2, 5] was “White”. For the same molecule, the Purity % [2, 5] was 99.54%, the Aspect [2, 6] was “White” and the Purity % [2, 6] was 99.59%. The Aspect ([2]; 25° C., 60% Rh, 1 month) was “White”, the Purity % ([2]; 25° C., 60% Rh, 1 month) was 99.62% and the Aspect ([2]; 25° C., 60% Rh, 3 months) was “White”. For the same molecule, the Purity % ([2]; 25° C., 60% Rh, 3 months) was 99.61%, the Aspect ([2]; 25° C., 60% Rh, 6 months) was “White” and the Purity % ([2]; 25° C., 60% Rh, 6 months) was 99.57%. The Aspect ([2]; 25° C., 60% Rh, initial) was “White” and the Purity % ([2]; 25° C., 60% Rh, initial) was 99.59%.

For `CC(C)C[C@@H](NC(=O)[C@@H](Cc1ccccc1)NC(=O)CNC[C@H](C)c1ccccc1)C(=O)N[C@H](CCCCN)C(=O)N1CCC(N)(C(=O)O)CC1` [Embodiment 4, 4-amino-1-((2R,5R,8R,14R)-2-(4-aminobutyl)-8-benzyl-5-isobutyl-4,7,10-trioxo-14-phenyl-3,6,9,12-tetraazapentadecan-1-acyl)piperidine-4-carboxylic acid] (H-[Gly(N-(2R-Ph-propyl))][dF][dL][dK]-{Piperidin1yl(4-NH2,4-COOH)}), the Purity % ([1]; 25° C., 5 days) was 97.56%, the Purity % ([1]; 25° C., 10 days) was 97.44% and the Purity % ([1]; 25° C., 20 days) was 97.28%. For the same molecule, the Purity % ([1]; 40° C., 5 days) was 86.31%, the Purity % ([1]; 4500 Lux, 0 days (initial)) was 97.70% and the Purity % ([1]; 4500 Lux, 5 days) was 95.83%. It also gave a Purity % ([1]; 4500 Lux, 10 days) of 94.91% and a Purity % ([1]; 4500 Lux, 20 days) of 92.17%.

Molecule `CC(C)C[C@@H](NC(=O)[C@@H](Cc1ccccc1)NC(=O)CNC[C@H](C)c1ccccc1)C(=O)N[C@H](CCCCN)C(=O)N1CCC(N)(C(=O)O)CC1` [Embodiment 6, 4-amino-1-((2R,5R,8R,14R)-2-(4-aminobutyl)-8-benzyl-5-isobutyl-4,7,10-trioxo-14-phenyl-3,6,9,12-tetraazapentadecan-1-acyl)piperidine-4-carboxylic acid] (H-[Gly(N-(2R-Ph-propyl))][dF][dL][dK]-{Piperidin1yl(4-NH2,4-COOH)}) has a Purity % ([1]; 25° C., 5 days) of 99.27%, a Purity % ([1]; 25° C., 10 days) of 99.27% and a Purity % ([1]; 25° C., 20 days) of 99.30%. For the same molecule, the Purity % ([1]; 40° C., 5 days) was 99.03%, the Purity % ([1]; 4500 Lux, 0 days (initial)) was 99.32% and the Purity % ([1]; 4500 Lux, 5 days) was 97.13%. The Purity % ([1]; 4500 Lux, 10 days) was 95.32% and the Purity % ([1]; 4500 Lux, 20 days) was 92.39%.

`CC(C)C[C@@H](NC(=O)[C@@H](Cc1ccccc1)NC(=O)CNC[C@H](C)c1ccccc1)C(=O)N[C@H](CCCCN)C(=O)N1CCC(N)(C(=O)O)CC1` [Embodiment 11, 4-amino-1-((2R,5R,8R,14R)-2-(4-aminobutyl)-8-benzyl-5-isobutyl-4,7,10-trioxo-14-phenyl-3,6,9,12-tetraazapentadecan-1-acyl)piperidine-4-carboxylic acid] (H-[Gly(N-(2R-Ph-propyl))][dF][dL][dK]-{Piperidin1yl(4-NH2,4-COOH)}) gave a Purity % ([2]; 4° C., 1 month) of 99.49%, a Purity % ([2]; 4° C., 3 months) of 99.56% and a Purity % ([2]; 4° C., 6 months) of 99.57%. It also gave a Purity % ([2]; 4° C., initial) of 99.50%, a Purity % [2, 3] of 99.50% and a Purity % [2, 4] of 99.51%. It also gave a Purity % [2, 5] of 99.51%, a Purity % [2, 6] of 99.50% and a Purity % ([2]; 25° C., 60% Rh, 1 month) of 99.50%. It also gave a Purity % ([2]; 25° C., 60% Rh, 3 months) of 99.52%, a Purity % ([2]; 25° C., 60% Rh, 6 months) of 99.5% and a Purity % ([2]; 25° C., 60% Rh, initial) of 99.50%.

`CC(C)C[C@@H](NC(=O)[C@@H](Cc1ccccc1)NC(=O)CNC[C@H](C)c1ccccc1)C(=O)N[C@H](CCCCN)C(=O)N1CCC(N)(C(=O)O)CC1` [Embodiment 12, 4-amino-1-((2R,5R,8R,14R)-2-(4-aminobutyl)-8-benzyl-5-isobutyl-4,7,10-trioxo-14-phenyl-3,6,9,12-tetraazapentadecan-1-acyl)piperidine-4-carboxylic acid] (H-[Gly(N-(2R-Ph-propyl))][dF][dL][dK]-{Piperidin1yl(4-NH2,4-COOH)}) showed a Purity % ([1]; 25° C., 5 days) of 96.93%, a Purity % ([1]; 25° C., 10 days) of 96.80% and a Purity % ([1]; 25° C., 20 days) of 96.97%. The Purity % ([1]; 4500 Lux, 0 days (initial)) was 97.04%, the Purity % ([1]; 4500 Lux, 5 days) was 96.65% and the Purity % ([1]; 4500 Lux, 10 days) was 96.63%. It also gave a Purity % ([1]; 4500 Lux, 20 days) of 96.77%.

`CC(C)C[C@@H](NC(=O)[C@@H](Cc1ccccc1)NC(=O)CNC[C@H](C)c1ccccc1)C(=O)N[C@H](CCCCN)C(=O)N1CCC(N)(C(=O)O)CC1` [Embodiment 13, 4-amino-1-((2R,5R,8R,14R)-2-(4-aminobutyl)-8-benzyl-5-isobutyl-4,7,10-trioxo-14-phenyl-3,6,9,12-tetraazapentadecan-1-acyl)piperidine-4-carboxylic acid] (H-[Gly(N-(2R-Ph-propyl))][dF][dL][dK]-{Piperidin1yl(4-NH2,4-COOH)}) gave a Purity % ([1]; 4500 Lux, 0 days (initial)) of 97.39%, a Purity % ([1]; 4500 Lux, 5 days) of 97.29% and a Purity % ([1]; 4500 Lux, 10 days) of 97.28%. For the same molecule, the Purity % ([1]; 4500 Lux, 20 days) was 97.28%.

`CC(C)C[C@@H](NC(=O)[C@@H](Cc1ccccc1)NC(=O)CNC[C@H](C)c1ccccc1)C(=O)N[C@H](CCCCN)C(=O)N1CCC(N)(C(=O)O)CC1` [Embodiment 14, 4-amino-1-((2R,5R,8R,14R)-2-(4-aminobutyl)-8-benzyl-5-isobutyl-4,7,10-trioxo-14-phenyl-3,6,9,12-tetraazapentadecan-1-acyl)piperidine-4-carboxylic acid] (H-[Gly(N-(2R-Ph-propyl))][dF][dL][dK]-{Piperidin1yl(4-NH2,4-COOH)}) showed a Purity % ([1]; 4500 Lux, 0 days (initial)) of 99.19%, a Purity % ([1]; 4500 Lux, 5 days) of 99.15% and a Purity % ([1]; 4500 Lux, 10 days) of 99.12%. It also gave a Purity % ([1]; 4500 Lux, 20 days) of 99.12%.

In the case of `CC(C)C[C@@H](NC(=O)[C@@H](Cc1ccccc1)NC(=O)CNC[C@H](C)c1ccccc1)C(=O)N[C@H](CCCCN)C(=O)N1CCC(N)(C(=O)O)CC1` [hydrochloride (1:2)] (H-[Gly(N-(2R-Ph-propyl))][dF][dL][dK]-{Piperidin1yl(4-NH2,4-COOH)}), the “Stability (conclusion in words)” value ([1]; illumination and high temperature, 20 days) is reported as “slightly degraded”.

In the case of `CC(C)C[C@@H](NC(=O)[C@@H](Cc1ccccc1)NC(=O)CNC[C@H](C)c1ccccc1)C(=O)N[C@H](CCCCN)C(=O)N1CCC(N)(C(=O)O)CC1` [hydrochloride (1:3)] (H-[Gly(N-(2R-Ph-propyl))][dF][dL][dK]-{Piperidin1yl(4-NH2,4-COOH)}), the “Stability (conclusion in words)” value ([1]; illumination condition) is reported as “slightly degraded” and the “Stability (conclusion in words)” value ([1]; other conditions (than illumination)) is reported as “stable”.
